From patent US20130071521A1, “REBAUDIOSIDE D SWEETENERS AND FOOD PRODUCTS SWEETENED WITH REBAUDIOSIDE D” (PEPSICO, INC., priority 2007, published 2013)

Legend:
[1] = tested on: sensory panel of twelve testers; assay: Sensory panel evaluation in water, noncarbonated beverage base and carbonated beverage base (Example 2); assay type: in vivo; design: Sweetness / Bitterness: scale not given here; details: for interaction between the sweetener and the three beverage bases (initial sweetness attribute plots): water, noncarbonated and carbonated beverage base; for Reb D Compared to Reb A % Ratio, Bitterness / Reb D Compared to Reb A % Ratio, Sweetness: ratio of Reb D to Reb A
Description: Potential beverage base effects on the initial sweetness perception of rebaudioside D were investigated by performing tests of three concentrations of rebaudioside D (Reb D) in water, in a noncarbonated beverage base, and in a carbonated beverage base, by a sensory panel of twelve testers. The numerical data generated by the sensory panel testers were then analyzed for their statistical significance.
The water employed for the tests of this Example comprised the characteristics as described in Example 1. The noncarbonated beverage base comprised purified water, and citric acid in an amount sufficient to decrease the pH of the noncarbonated beverage base to 3.1. The carbonated beverage base comprised purified water, carbon dioxide, and citric acid in an amount sufficient to decrease the pH of the noncarbonated beverage base to about 3.1. The initial sweetness characteristics of 606 parts per million (ppm) Reb D in water were compared to the initial sweetness characteristics of 606 ppm Reb D in noncarbonated beverage base and 606 ppm Reb D in carbonated beverage base.
The specific attributes tested by the sensory panel comprised sweetness, thickness, astringency, bitterness, numbing, cooling, licorice, burn/tingle and mouthcoat.

[2] = Sweetness intensity and quality of taste of steviol glycosides reported by Kinghorn (2002); details: from the Kinghorn values
Source text: In the book “Stevia, The genus Stevia”, edited by A. Douglas Kinghorn (2002), the structural differences, sweetness intensity and quality of taste between the steviol glycosides is reported on page 138. The relative quality of taste, as compared to stevioside, (i.e., stevioside is rated 0) of rebaudioside D was rated higher (+3) than rebaudioside A was rated (+2). Particular taste attributes that contributed to the quality of taste, however, were not individually rated. The sweetness of rebaudioside A was reported to have a value of 242, whereas the sweetness of rebaudioside D was reported to have a value of 221.

[3] = Kinghorn (2002) page 138, cited from earlier work
[4] = commonly accepted potency figures; cited from earlier work
[5] = tested on: sensory panel of twelve testers; assay: Sensory panel evaluation of initial sweetness characteristics of sweeteners in water (Example 1); assay type: in vivo; details: for behavior as compared to sucrose, all concentrations plotted: FIG. 12; for initial sweetness perception: FIG. 2/FIG. 4; for initial bitterness perception: FIG. 3/FIG. 5
Description: Sensory evaluations of different sweeteners at various concentrations were performed to provide comparative analysis of organoleptic characteristics of aqueous solutions of rebaudioside D, versus other sweeteners. The rebaudioside D was a stevia extract having a purity of at least 93% by weight rebaudioside D (Reb D). Initial sweetness characteristics of three concentrations of such Reb D in water were determined by a sensory panel of twelve testers. Sensory panels are well known to those of skill in the art, and comprise testers trained to evaluate the organoleptic attributes of comestibles. Typically, sensory panelists have been screened for their taste acuity and extensively trained in the use of standardized vocabulary to describe the appearance, aroma, flavor, mouthfeel and aftertaste of a wide variety of products, as well as scaling techniques to quantify the attributes. The numerical data generated by the sensory panel testers were then analyzed for their statistical significance.
The water employed in the tests of Example 1 comprised purified water as described in detail above, and having a pH of 7.0. The initial sweetness characteristics of 1200 parts per million (ppm) Reb D in water were compared to the initial sweetness characteristics of aqueous solutions of each of 1200 ppm rebaudioside A (Reb A), sucrose, aspartame and sucralose. The rebaudioside A was a stevia extract comprising a purity of 95% by weight rebaudioside A (PureCircle USA Inc., Oak Brook, Ill.). The specific attributes tested by the sensory panel comprised sweetness, thickness, astringency, bitterness, numbing, cooling and licorice.
The initial sweetness characteristics of other concentrations of rebaudioside D in water were also tested and compared to the same concentrations of rebaudioside A in water. […] FIGS. 2 through 5 illustrate the differences in the characteristics of sweetness and bitterness attributes between Reb D and Reb A.

Water solubility = assay type: physicochemical; details: commercially available Reb D
Source text: The water solubility of commercially available Reb D is low, thus, according to certain embodiments of the invention, rebaudioside D is provided as a supersaturated solution of rebaudioside D in the beverage products disclosed herein. As used herein, the term “saturated” refers to the point of maximum concentration at which a solution of a substance (e.g., a rebaudioside D solution) can dissolve no more of that substance. The saturation point of a substance depends on the temperature of the liquid the substance is to be dissolved in, as well as the chemical natures of the liquid and the substance involved (e.g., the water and/or the rebaudioside D). As used herein, the term “supersaturated” refers to a solution that contains more of a dissolved material (e.g., rebaudioside D) than a saturated solution. Supersaturated solutions are typically achieved when one or more conditions of a saturated solution is changed, such as, e.g., temperature, volume (e.g., by evaporation), pressure or the like.

[6] = 360 ppm, averaged across all three beverage bases
[7] = 606 ppm, averaged across all three beverage bases
[8] = 1200 ppm, averaged across all three beverage bases
[9] = CSD (carbonated beverage base), 360 ppm
[10] = CSD (carbonated beverage base), 606 ppm
[11] = High Level, 1200 ppm, averaged across all three beverage bases
[12] = Low-Medium Level, 360 ppm, averaged across all three beverage bases
[13] = Medium Level, 606 ppm, averaged across all three beverage bases
[14] = NCB (noncarbonated beverage base), 360 ppm
[15] = NCB (noncarbonated beverage base), 606 ppm

## C=C1C[C@@]23CC[C@H]4[C@@](C)(CCC[C@@]4(C)C(=O)O[C@@H]4O[C@H](CO)[C@@H](O)[C@H](O)[C@H]4O[C@@H]4O[C@H](CO)[C@@H](O)[C@H](O)[C@H]4O)[C@@H]2CC[C@]1(O[C@@H]1O[C@H](CO)[C@@H](O)[C@H](O[C@@H]2O[C@H](CO)[C@@H](O)[C@H](O)[C@H]2O)[C@H]1O[C@@H]1O[C@H](CO)[C@@H](O)[C@H](O)[C@H]1O)C3 [Reb D, rebaudioside D]
[1]; 360 ppm
  average bitterness in each of the three beverage bases versus Reb A: lower average bitterness
  average sweetness in each of the three beverage bases versus Reb A: greater average sweetness
[1]; 360 ppm (sucrose 5.4 brix), FIGS. 16-18
  interaction between the sweetener and the three beverage bases (initial sweetness attribute plots): no significant interaction
[1]; [6]
  Reb D Compared to Reb A % Ratio, Bitterness: 37%
  Reb D Compared to Reb A % Ratio, Sweetness: 115%
[1]; 606 ppm
  average bitterness in each of the three beverage bases versus Reb A: lower average bitterness
  average sweetness in each of the three beverage bases versus Reb A: greater average sweetness
[1]; 606 ppm (sucrose 8.5 brix), FIGS. 13-15
  interaction between the sweetener and the three beverage bases (initial sweetness attribute plots): no significant interaction
[1]; [7]
  Reb D Compared to Reb A % Ratio, Bitterness: 30%
  Reb D Compared to Reb A % Ratio, Sweetness: 117%
[1]; [8]
  Reb D Compared to Reb A % Ratio, Bitterness: 40%
  Reb D Compared to Reb A % Ratio, Sweetness: 150%
[1]; [9]
  Bitterness: 18.1
  Sweetness: 63.4
[1]; [10]
  Bitterness: 14.1
  Sweetness: 73.9
[1]; [11]
  Bitterness: 17.4
  Sweetness: 105.5
[1]; [12]
  Bitterness: 7.7
  Sweetness: 60.6
[1]; [13]
  Bitterness: 9.8
  Sweetness: 74.3
[1]; [14]
  Bitterness: 10.7
  Sweetness: 58.9
[1]; [15]
  Bitterness: 7.4
  Sweetness: 85.1
[1]; Water, 360 ppm
  Bitterness: 7.7
  Sweetness: 60.6
[1]; Water, 606 ppm
  Bitterness: 9.8
  Sweetness: 74.3
[2]
  sweetness less than the sweetness of rebaudioside A: approximately 10%
[3]
  sweetness (value reported by Kinghorn): 221
[3]; stevioside is rated 0
  relative quality of taste, as compared to stevioside: +3
[4]
  potency, times as sweet as sugar: 150-300 times as sweet as sugar
[5]; 360, 606 and 1200 ppm in water, FIG. 8
  overall attributes versus Reb A: less bitterness and astringency
[5]; 360 ppm and 606 ppm Reb D in water
  behavior as compared to sucrose, all concentrations plotted: behaved more like sucrose than did any of the concentrations of Reb A
[5]; 360 ppm and 606 ppm in water, FIG. 8
  attributes of lower levels versus the same levels of Reb A: less bitter, astringent, numbing and licorice
[5]; 360 ppm in water
  bitterness perception value less than same concentration of Reb A: about 30
  initial sweetness perception: about 62
  initial bitterness perception: about 8
[5]; 360 ppm in water, FIG. 7
  initial sweetness attributes versus the same concentration of Reb A: significantly less astringency, bitterness and numbing
[5]; 360 ppm in water, FIG. 11
  relative sweet properties (continuum regular sweet to artificial sweet-like) versus same concentration of Reb A: behaved more like sucrose
[5]; 600 ppm in water
  bitterness perception value less than same concentration of Reb A: about 47
[5]; 606 ppm in water, FIG. 6
  initial sweetness attributes versus the same concentration of Reb A: significantly less astringency, bitterness and numbing
[5]; 606 ppm in water, FIG. 10
  relative sweet properties (continuum regular sweet to artificial sweet-like) versus same concentration of Reb A: behaved more like sucrose
[5]; 1200 ppm Reb D in water
  behavior as compared to sucrose, all concentrations plotted: behaved more like sucrose than did either 606 ppm Reb A or 1200 ppm Reb A
[5]; 1200 ppm in water
  bitterness perception value less than same concentration of Reb A: about 67
  initial sweetness perception: about 108
  initial bitterness perception: about 18
[5]; 1200 ppm in water, FIG. 1
  initial sweetness attributes versus the same concentration of Reb A: significantly less astringency, bitterness and numbing
[5]; 1200 ppm in water, FIG. 9
  relative sweet properties (continuum regular sweet to artificial sweet-like) versus same concentration of Reb A: behaved more like sucrose
[5]; all concentrations in water
  numerical value of the bitterness perception versus Reb A: significantly lower
[5]; in water, 360 to 1200 ppm
  change in sweetness perception with an increase in concentration: significant increase in sweetness perception
  increase in bitterness perception with an increase in concentration, versus Reb A: substantially lower
[5]; in water, FIG. 6
  licorice attribute, 606 ppm Reb D versus 1200 ppm Reb D: lower value
[5]; in water, FIG. 8
  correlation to the sweetness perception attributes of sucrose, versus rebaudioside A: more highly correlated
Water solubility
  water solubility: low
